Data: patent US6468537B1, “Localization of major peptide autoepitopes for nucleosome specific T cells of systemic lupus erythematosus” (The Board of Trustees of Northwestern University, priority 1999, dated 2002)

Assays:
[1] = system: CD4+ T cell clone DD2; assay: IL-2 production by lupus Th cell clone DD2 in response to histone peptides; format: cell-based, human; settings: autologous EBV-B cells pulsed with peptide as APC
Protocol: Short-term T cell lines were rapidly thawed from liquid nitrogen and expanded in the presence of plate-bound anti-CD3 mAb, anti-CD28 mAb, and rIL-2 (20 units per milliliter). The expanded cells were transferred to fresh culture wells and rested by incubating in fresh medium for 10 to 14 days. For stimulation assays, 96 well plates were coated with 2 micrograms per milliliter of goat anti-mouse IgG antibodies overnight at 37° C. After washing the plates twice with Dulbecco's phosphate-buffered saline (dPBS), autologous and previously irradiated (3,000 rad) EBV-B cells (APC) were first added to each well at a concentration of 1×10^5 cells per well. The cells (APC) were cultured together with either a core histone peptide or a control peptide for 6 hours in HL-1 serum free medium (Bio Whittaker, Maryland). This procedure was followed by the addition to each well of CD4^+ T cells from the short-term lines at a concentration of 1×10^5 cells per well, and the addition of 0.5 micrograms per milliliter of a mouse monoclonal antibody (mAb) to human CD28. The final volume of the cultures was 200 microliters per well. Cells were co-cultured for 24 hours at 37° C. One-half the volume of supernatant was collected from each well for ELISA analysis of interleukin levels. Fresh medium (100 microliters) was added to cells, and the cells were incubated an additional 48 hours. [^3H] thymidine was added, and the cultures were incubated an additional 18 hours. Incorporated radioactivity was measured to quantitate T cell proliferation as described previously (Desai-Mehta et al., 1995, J. Clin. Invest. 95:53 1-541). HLA class II dependence of antigen-specific responses by the CD4^+ T cells was determined by adding to the co-cultures a blocking antibody from a panel of mAb to HLA class II molecules, as described previously (Desai-Mehta et al., 1995, J. Clin. Invest. 95:53 1-541). […]
IL-2 secreted by CD4^+ T cells in short term experiments was measured using an ELISA. […]

[2] = system: short-term CD4+ T cell lines; assay: IL-2 production by short-term CD4+ T cell lines in response to histone peptides (pepscan); format: cell-based, human; settings: short-term lines from 10 lupus patients
Protocol: Short-term T cell lines were rapidly thawed from liquid nitrogen and expanded in the presence of plate-bound anti-CD3 mAb, anti-CD28 mAb, and rIL-2 (20 units per milliliter). The expanded cells were transferred to fresh culture wells and rested by incubating in fresh medium for 10 to 14 days. For stimulation assays, 96 well plates were coated with 2 micrograms per milliliter of goat anti-mouse IgG antibodies overnight at 37° C. After washing the plates twice with Dulbecco's phosphate-buffered saline (dPBS), autologous and previously irradiated (3,000 rad) EBV-B cells (APC) were first added to each well at a concentration of 1×10^5 cells per well. The cells (APC) were cultured together with either a core histone peptide or a control peptide for 6 hours in HL-1 serum free medium (Bio Whittaker, Maryland). This procedure was followed by the addition to each well of CD4^+ T cells from the short-term lines at a concentration of 1×10^5 cells per well, and the addition of 0.5 micrograms per milliliter of a mouse monoclonal antibody (mAb) to human CD28. The final volume of the cultures was 200 microliters per well. Cells were co-cultured for 24 hours at 37° C. One-half the volume of supernatant was collected from each well for ELISA analysis of interleukin levels. Fresh medium (100 microliters) was added to cells, and the cells were incubated an additional 48 hours. [^3H] thymidine was added, and the cultures were incubated an additional 18 hours. Incorporated radioactivity was measured to quantitate T cell proliferation as described previously (Desai-Mehta et al., 1995, J. Clin. Invest. 95:53 1-541). HLA class II dependence of antigen-specific responses by the CD4^+ T cells was determined by adding to the co-cultures a blocking antibody from a panel of mAb to HLA class II molecules, as described previously (Desai-Mehta et al., 1995, J. Clin. Invest. 95:53 1-541).
IL-2 secreted by CD4^+ T cells in short term experiments was measured using an ELISA. Capture and biotinylated antibody pairs directed at human IL-2 and standards for use therein were purchased from PharMingen. […]

[3] = system: anti-DNA autoantibodies of lupus; settings: cited from earlier work
[4] = system: splenic T cells of pre-nephritic SNF1 mice; settings: cited from earlier work
[5] = system: CD4+ T cells; assay: Helper assay: CD4+ T cells from peptide-injected mice co-cultured with B cells from unmanipulated SNF1 mice; format: cell-based, mouse; settings: for reduction of anti-ssDNA antibody production relative to control group / reduction of anti-dsDNA antibody production compared with control group: T cells from treated mice + B cells from unmanipulated mice; for reduction of anti-dsDNA antibody production compared with control group: 7 days; for increase in help for anti-dsDNA antibody production following addition of rIL-2: rIL-2 added at beginning of 7-day culture
Description: (§1) Levels of IgG class autoantibodies specific for single-stranded DNA (ssDNA), double-stranded DNA (dsDNA), histones, and nucleosomes (i.e. histone-DNA complexes), in culture supernatants or serum, were estimated using an enzyme-linked immunosorbent assay (ELISA). Anti-DNA mAbs 564 and 205 were used to generate standard curves as previously described (Mohan et al., 1993, J. Exp. Med. 177:1367; Kaliyaperumal et al., 1996, J. Exp. Med. 183:2459; Mohan et al., 1995, J. Immunol. 154:1470; Adams et al., 1991, Proc. Natl. Acad. Sci. USA 88:11271). Sera were diluted 1:400 and heat-inactivated before use according to standard procedures. Sera from normal SWR mice were used as the negative control. Total polyclonal IgG levels were also measured by ELISA as previously described (Mohan et al., 1993, J. Exp. Med. 177:1367; Mohan et al., 1995, J. Immunol. 154:1470; Adams et al., 1991, Proc. Natl. Acad. Sci. USA 88:11271).
(§2) T-cells from peptide-treated mice used in the short-term experiments were co-cultured with splenic B cells from unmanipulated mice. Conversely, T cells from unmanipulated SNF1 mice (i.e. control mice) were co-cultured with splenic B cells from tolerized (i.e. peptide-injected) mice. Each of the cell types was seeded in 24-well plates at an initial concentration of 2.5×10^6 cells per well. Cultures were maintained for 7 days, as previously described (Datta et al., 1987, J. Exp. Med. 165:1252; Sainis and Datta, 1988, J. Immunol. 140:2215). B cells from unmanipulated or tolerized animals were cultured alone to measure baseline autoantibody production. Culture supernatants were collected, freeze-thawed, and assayed by ELISA for antibodies against ssDNA, dsDNA, histones and nucleosomes. For studies involving stimulation of B cells by soluble CD40 ligand, CD40L-CD8 fusion protein (Wortis et al., 1995, Proc. Natl. Acad. Sci. USA 92:3348) was added to either the co-culture wells or the wells with B cells alone and maintained in the medium for the entire 7-day culture period.

[6] = system: SNF1 mice; assay: Brief therapy with nucleosomal histone peptides (long-term experiments): incidence of severe nephritis; format: in vivo, mouse
Protocol: (§3) Long-term experiments used 12 week-old, autoimmune, but pre-nephritic SNF1 female mice. Nine mice per peptide test group were injected intravenously with either a saline (solution) or a peptide solution comprising saline and 300 micrograms of one of H2B10-33, H416-39, and H471-94. Each mouse received three subsequent injections of either the saline solution or one of the peptide solutions at two-week intervals. The mice were monitored weekly for proteinuria using an Albustix kit (VWR Scientific, Chicago, Ill.), and sacrificed upon the development of persistent proteinuria. Persistent protenuria was identified as an amount of protein in urine that is equivalent to or greater than 300 milligrams per deciliter, and is a primary indication of severe kidney disease and damage associated with nephritis. Sera were collected from each mouse and the IgG anti-nuclear autoantibodies determined. Blood urea nitrogen (BUN) was measured by Azostix (Miles, Ekhart, Ind.). Immune complex deposition and glomerulonephritis in the kidney were detected by staining with Hematoxylin and Eosin and anti-mouse Ig. These procedures were carried out as previously described (Mohan et al., 1993, J. Exp. Med. 177:1367; Mohan et al., 1995, J. Immunol. 154:1470; Eastcott et al., 1983, J. Immunol. 131:2232; Adams et al., 1991, Proc. Natl. Acad. Sci. USA 88:11271; Kalled et al., 1998, J. Immunol. 160:2158; Gaynor et al., 1997, Proc. Natl. Acad. Sci. USA 94:1955).

[7] = system: B cells; assay: Stimulation of purified B cells from peptide-injected mice (anti-Ig (Fab')2, rIL-4, CD40L, LPS); format: cell-based, mouse
Description: as §1, §2

[8] = system: HLA-DR; settings: cited from earlier work
[9] = system: SNF1 mice; assay: IgG anti-nuclear autoantibody and total IgG levels in sera of peptide-injected mice (ELISA); format: in vivo, mouse; settings: sera 1:400
Protocol: as §3, §1

[10] = system: SNF1 mice; assay: Short-term tolerance experiments: grading of lupus nephritis at sacrifice; format: in vivo, mouse; settings: short-term batch, at sacrifice two weeks after last injection
Protocol: Short-term experiments were conducted to test the early immunological consequences of tolerance therapy. Twelve week old SNF1 mice were injected once a week for four weeks with either a saline solution or a peptide solution comprising saline and 300 micrograms of one of the above described peptides. Mice were sacrificed at two weeks after the last injection. Presence of autoimmune T and B cells was analyzed and renal lesions were graded.

[11] = system: SNF1 mice; assay: Chronic therapy of established glomerulonephritis with nucleosomal peptides; format: in vivo, mouse; settings: for survival: by 26 months age; for mice alive: two months after start of treatment (all controls dead), 300 micrograms i.p. monthly, 18-month old mice
Protocol: Six mice per group were injected intraperitoneally once each month with either a saline solution or a peptide solution comprising saline and 300 micrograms of one of the identified peptides. The endpoint of these experiments was the development of moribund state due to renal failure.

[12] = system: B cells; assay: Helper assay: B cells from peptide-injected mice co-cultured with CD4+ T cells from unmanipulated SNF1 mice; format: cell-based, mouse
Description: as §1, §2

[13] = rIL-2 added, not significant relative to control
[14] = at 28 weeks of age, 300 micrograms i.v., four injections at two-week intervals from 12 weeks
[15] = at 36-38 weeks of age, control 88.8%
[16] = at 36 weeks of age, control 26±3.2
[17] = at the start of treatment (12 weeks), control 5.5±0.3

Substance | reduction of anti-ssDNA antibody production relative to control group [5] | reduction of anti-dsDNA antibody production compared with control group [5] | increase in help for anti-dsDNA antibody production following addition of rIL-2 [5] | incidence of severe nephritis [6, 14] | incidence of severe nephritis [6, 15] | antibody production by B cells stimulated with anti-Ig (Fab')2 in presence or absence of rIL-4 [7] | binding to HLA-DR [8] | serum anti-dsDNA antibody level [9, 16] | serum anti-dsDNA antibody level [9, 17] | survival [11] | mice alive [11] | production of anti-nucleosome antibodies relative to control group [12] | further results
H383-97: H3 peptide used as additional background control, partly within a stimulatory region in H3 (RFQSSAVMALQEACE; UniProt P68431 84-98, looked up, fragment) |  |  |  |  |  |  |  |  |  |  |  |  | stimulation of DD2 [1]: not recognized by any of the T-cell lines or clone DD2; recognition by / response of lupus T cell lines [2]: not recognized by any of the T-cell lines or clone DD2
H385-102: epitope in nucleosomal core histone H3, amino acid positions 85-102 (QSSAVMALQEACEAYLVG; UniProt P68431 86-103, looked up, fragment) |  |  |  |  |  |  |  |  |  |  |  |  | binding by anti-DNA autoantibodies [3]: also bound by spontaneously arising anti-DNA autoantibodies of lupus; response of splenic T cells [4]: spontaneously responded
H416-39: nucleosomal histone peptide of histone 4 protein (H4), amino acid positions 16-39 | approximately 55% | approximately 50% | 35% | did not develop disease | 11.1% | did not respond by increasing antibody production | have actually been shown to bind HLA-DR | 13.0±4.0 units | 9.0±2.1 units | all of the H416-39 group mice remained alive | none of the mice in H416-39 group had died | reduced by three fold | increase in anti-nucleosome antibodies following addition of rIL-2 [5, 13]: 20%; increase in anti-ssDNA antibodies following addition of rIL-2 [5, 13]: 30%; incidence of severe nephritis ([6]; at 54 weeks of age): 55.5%; antibody production by B cells with addition of CD40L and rIL-4 [7]: did not produce significant amounts of antibodies; Percent Incidence, Grading of Lupus Nephritis 0 [10]: 33.3; Percent Incidence, Grading of Lupus Nephritis 1+ [10]: 66.6; animals exhibiting a reduction in proteinuria levels ([11]; during the course of the experiment): 66.6%; proteinuria level after reduction ([11]; reduced from 300-1000 milligrams per deciliter): less than 100 milligrams per deciliter; ability of B cells to produce IgG autoantibodies in presence of T helper cells [12]: diminished levels of all autoantibodies; reduction of anti-histone antibody production relative to control group [12]: approximately 4 fold; level of anti-dsDNA antibodies produced by B cells ([12]; control 160±18.5): 45±10.1 units per deciliter; production of anti-ssDNA antibodies by B cells ([12]; control 170±10.9 units per deciliter): 60±7.9 units
H471-94: histone 4 protein (H4) amino acids 71-94 | not significant | approximately 50% | did not exhibit any increase | 33.3% | 33.3% | could be stimulated to produce autoantibodies at levels similar to those of the control mice | have actually been shown to bind HLA-DR | 17.1±2.7 units | 5.4±1.1 units | all of the H471-94 group mice had succumbed to renal disease | 66.6% | remained significantly low | Percent Incidence, Grading of Lupus Nephritis 2+ [10]: 66.6; Percent Incidence, Grading of Lupus Nephritis 3+ [10]: 33.3; production of anti-histone antibodies relative to control group [12]: remained significantly low
